Where “and” joins values, the source holds several entries; their conditions need not be identical. Equal entries are not always repeated. Inconclusive results and toxic doses are left out. Cut-off read from the data, not from the text of the source: active = T/C of 150% or more; inactive = T/C below 125%.
Test system: L1210 leukemia ip in BDF1 mice, survival T/C
Assay: NCI In Vivo Anticancer Drug Screen. Data for tumor model L1210 Leukemia (intraperitoneal) in B6D2F1 (BDF1) mice
Conditions: endpoint: mean survival time, higher = longer survival
How it was run: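 Mice bearing the transplanted tumor received compound or vehicle. Survival of the treated group was divided by that of the vehicle-treated control group to give the ratio.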

[1] = dose: 100.0 mg/kg/injection, schedule: Q01DX009 (ip), vehicle: Klucel (hydroxypropylcellulose) (HPC)
[2] = dose: 100.0 mg/kg/injection, schedule: Q04DX003 (ip), vehicle: Klucel (hydroxypropylcellulose) (HPC)
[3] = dose: 200.0 mg/kg/injection, schedule: Q01DX009 (ip), vehicle: Klucel (hydroxypropylcellulose) (HPC)
[4] = dose: 400.0 mg/kg/injection, schedule: Q01DX009 (ip), vehicle: Klucel (hydroxypropylcellulose) (HPC)
[5] = dose: 400.0 mg/kg/injection, schedule: Q04DX003 (ip), vehicle: Klucel (hydroxypropylcellulose) (HPC)
[6] = dose: 100.0 mg/kg/injection, schedule: Q01DX001 (ip), vehicle: saline
[7] = dose: 200.0 mg/kg/injection, schedule: Q01DX001 (ip), vehicle: saline
[8] = dose: 400.0 mg/kg/injection, schedule: Q01DX001 (ip), vehicle: saline
[9] = dose: 100.0 mg/kg/injection, schedule: Q01DX009 (ip), vehicle: saline with Tween-80
[10] = dose: 200.0 mg/kg/injection, schedule: Q01DX009 (ip), vehicle: saline with Tween-80
[11] = dose: 200.0 mg/kg/injection, schedule: Q04DX003 (ip), vehicle: Klucel (hydroxypropylcellulose) (HPC)
[12] = dose: 100.0 mg/kg/injection, schedule: Q01DX001 (ip), vehicle: carboxymethylcellulose (CMC)
[13] = dose: 200.0 mg/kg/injection, schedule: Q01DX001 (ip), vehicle: carboxymethylcellulose (CMC)
[14] = dose: 400.0 mg/kg/injection, schedule: Q01DX001 (ip), vehicle: carboxymethylcellulose (CMC)

Measured: T/C

O=[N+]([O-])c1ccccc1SNc1ccccc1
inactive: [1] 102 % of control | [2] 96 % of control | [3] 105 % of control | [4] 107 % of control | [5] 103 % of control

NC(=O)N1CC(c2ccccc2)CCc2ccccc21 (stereo not given)
inactive: [6] 98 % of control | [7] 108 % of control | [8] 102 % of control

Cc1c2c(cc3c1CCCC3)CCCC2
inactive: dose: 100.0 mg/kg/injection, schedule: Q01DX001 (ip), vehicle: saline with Tween-80 93 % of control | dose: 200.0 mg/kg/injection, schedule: Q01DX001 (ip), vehicle: saline with Tween-80 93 % of control | dose: 400.0 mg/kg/injection, schedule: Q01DX001 (ip), vehicle: saline with Tween-80 92 % of control

Cc1ccc(Nc2cc(=O)[nH]c(N)n2)cc1C
inactive: dose: 100.0 mg/kg/injection, schedule: Q01DX Z (ip), vehicle: methylcellulose (MC) 95 % of control | dose: 200.0 mg/kg/injection, schedule: Q01DX Z (ip), vehicle: methylcellulose (MC) 95 % of control

COC(=O)C(c1ccccc1)C1(O)CCN(CC2COc3ccccc3O2)CC1 (stereo not given)
inactive: dose: 25.0 mg/kg/injection, schedule: Q01DX001 (ip), vehicle: Klucel (hydroxypropylcellulose) (HPC) 96 % of control | dose: 50.0 mg/kg/injection, schedule: Q01DX001 (ip), vehicle: Klucel (hydroxypropylcellulose) (HPC) 93 % of control | dose: 100.0 mg/kg/injection, schedule: Q01DX001 (ip), vehicle: Klucel (hydroxypropylcellulose) (HPC) 97 % of control and 102 % of control

O=S(=O)(Nc1ccc(CCc2ccc(NS(=O)(=O)c3ccccc3)cc2)cc1)c1ccccc1
inactive: [9] 95 % of control | [10] 98 % of control | dose: 400.0 mg/kg/injection, schedule: Q01DX009 (ip), vehicle: saline with Tween-80 98 % of control

CC12CCC(C/C1=C\C#N)C(C)(C)O2 (stereo not given)
inactive: [2] 98 % of control | [11] 98 % of control | [5] 101 % of control

COC(=O)C1CNc2ccccc2C1=O (stereo not given)
inactive: dose: 50.0 mg/kg/injection, schedule: Q01DX001 (ip), vehicle: carboxymethylcellulose (CMC) 97 % of control | [12] 92 % of control | [13] 97 % of control | [14] 92 % of control

Nc1nnc(SCc2ccccc2)s1
inactive: [1] 92 % of control | [3] 105 % of control | [4] 97 % of control

O=S(=O)(O)c1cc(O)c2ccccc2c1
inactive: dose: 100.0 mg/kg/injection, schedule: Q01DX009 (ip), vehicle: saline 90 % of control | dose: 100.0 mg/kg/injection, schedule: Q04DX003 (ip), vehicle: saline 109 % of control | dose: 200.0 mg/kg/injection, schedule: Q01DX009 (ip), vehicle: saline 90 % of control | dose: 200.0 mg/kg/injection, schedule: Q04DX003 (ip), vehicle: saline 109 % of control | dose: 400.0 mg/kg/injection, schedule: Q01DX009 (ip), vehicle: saline 95 % of control | dose: 400.0 mg/kg/injection, schedule: Q04DX003 (ip), vehicle: saline 109 % of control

Cc1ccc2[nH]c3ccccc3c(=O)c2c1
inactive: dose: 75.0 mg/kg/injection, schedule: Q01DX001 (ip), vehicle: saline 93 % of control | dose: 150.0 mg/kg/injection, schedule: Q01DX001 (ip), vehicle: saline 91 % of control | dose: 300.0 mg/kg/injection, schedule: Q01DX001 (ip), vehicle: saline 90 % of control

O=C1C=C(N2CC2)c2ccccc2C1=O
inactive: dose: 2.5 mg/kg/injection, schedule: Q01DX009 (ip), vehicle: Klucel (hydroxypropylcellulose) (HPC) 101 % of control | dose: 2.5 mg/kg/injection, schedule: Q04DX003 (ip), vehicle: Klucel (hydroxypropylcellulose) (HPC) 104 % of control | dose: 5.0 mg/kg/injection, schedule: Q01DX009 (ip), vehicle: Klucel (hydroxypropylcellulose) (HPC) 96 % of control | dose: 5.0 mg/kg/injection, schedule: Q04DX003 (ip), vehicle: Klucel (hydroxypropylcellulose) (HPC) 104 % of control | dose: 10.0 mg/kg/injection, schedule: Q01DX009 (ip), vehicle: Klucel (hydroxypropylcellulose) (HPC) 100 % of control | dose: 10.0 mg/kg/injection, schedule: Q04DX003 (ip), vehicle: Klucel (hydroxypropylcellulose) (HPC) 102 % of control | dose: 20.0 mg/kg/injection, schedule: Q01DX001 (ip), vehicle: Klucel (hydroxypropylcellulose) (HPC) 105 % of control | dose: 20.0 mg/kg/injection, schedule: Q01DX009 (ip), vehicle: Klucel (hydroxypropylcellulose) (HPC) 104 % of control | dose: 20.0 mg/kg/injection, schedule: Q04DX003 (ip), vehicle: Klucel (hydroxypropylcellulose) (HPC) 109 % of control

CC(=O)c1ccc(Cc2ccc(C(C)=O)s2)s1
inactive: dose: 50.0 mg/kg/injection, schedule: Q01DX009 (ip), vehicle: saline with Tween-80 86 % of control | [9] 93 % of control | [10] 89 % of control

CCCCC(NC(=O)CNC(=O)OCc1ccccc1)C(=O)OC (stereo not given)
inactive: dose: 100.0 mg/kg/injection, schedule: Q04DX003 (ip), vehicle: saline with Tween-80 108 % of control | dose: 200.0 mg/kg/injection, schedule: Q04DX003 (ip), vehicle: saline with Tween-80 100 % of control | dose: 400.0 mg/kg/injection, schedule: Q04DX003 (ip), vehicle: saline with Tween-80 93 % of control

CCOC(=O)c1ccc(NC(=O)/C=C/c2ccccc2)cc1
inactive: [1] 97 % of control | [3] 95 % of control | [4] 97 % of control

O=C(CNC(=O)OCc1ccccc1)NC(Cc1ccccc1)C(=O)Oc1c(Cl)c(Cl)c(Cl)c(Cl)c1Cl (stereo not given)
inactive: dose: 75.0 mg/kg/injection, schedule: Q01DX001 (ip), vehicle: carboxymethylcellulose (CMC) 106 % of control | dose: 150.0 mg/kg/injection, schedule: Q01DX001 (ip), vehicle: carboxymethylcellulose (CMC) 98 % of control | dose: 300.0 mg/kg/injection, schedule: Q01DX001 (ip), vehicle: carboxymethylcellulose (CMC) 91 % of control

CN(C)CCCCN(C)CCCN(C)C
inactive: [6] 114 % of control | [7] 102 % of control | [8] 98 % of control

CCC(CO)Nc1nc2ccccc2c2ccccc12 (stereo not given)
inactive: [1] 102 % of control | [2] 98 % of control | [3] 97 % of control | [11] 89 % of control | [5] 88 % of control

CC(O)C(C)(C)C(O)C(=O)NCCSc1ccc(Cl)cc1 (stereo not given)
inactive: dose: 100.0 mg/kg/injection, schedule: Q01DX001 (ip), vehicle: acetone 104 % of control | dose: 200.0 mg/kg/injection, schedule: Q01DX001 (ip), vehicle: acetone 104 % of control | dose: 400.0 mg/kg/injection, schedule: Q01DX001 (ip), vehicle: acetone 102 % of control

CCOC(=O)Cc1c(C)c2cc(C(=O)c3ccccc3)c(O)cc2oc1=O
inactive: [6] 98 % of control | [7] 96 % of control | [8] 93 % of control

CSC1CCCC(=O)C1 (stereo not given)
inactive: [1] 98 % of control | [2] 96 % of control | [3] 101 % of control | [11] 97 % of control | [4] 96 % of control | [5] 105 % of control

O=C1c2cccc3c([N+](=O)[O-])ccc(c23)C(=O)N1CCCN1CCOCC1
inactive: dose: 25.0 mg/kg/injection, schedule: Q01DX009 (ip), vehicle: Klucel (hydroxypropylcellulose) (HPC) 104 % of control | dose: 50.0 mg/kg/injection, schedule: Q01DX009 (ip), vehicle: Klucel (hydroxypropylcellulose) (HPC) 98 % of control | [1] 93 % of control and 87 % of control

CCCC(CNC(=O)OCC)(CNC(=O)OCC)c1ccccc1
inactive: [12] 94 % of control | [13] 94 % of control | [14] 105 % of control

Reference: PubChem BioAssay AID248 (DTP/NCI, 2004)
